Measured values from patent publication US20260373248A1, “DEGRADABLE PEPTOIDS” (Medici Therapeutics, Inc., priority 2023, published 2026).
Starred links: 1 amine or outer side, 2 acyl side, 3 side chain; linkers in the order of their positions; H or OH if unused. Non-standard residues stand in square brackets, D forms with d. Residues, ends and D or L forms follow the SMILES beside them. *: point of attachment. Gly(N-(3-decanoyloxypropyl)) = CCCCCCCCCC(=O)OCCCNCC(=O)O; N(3-lauroyloxypropyl)Gly = CCCCCCCCCCCC(=O)OCCCNCC(=O)O; N(3-imidazol-1-ylpropyl)Gly = O=C(O)CNCCCn1ccnc1; Gly(N-3-morpholinopropyl) = O=C(O)CNCCCN1CCOCC1; N(2-ethylhexyl)Gly = CCCCC(CC)CNCC(=O)O; X2 = CCCCCCC(CCCC)CN(CC(=O)[*:2])[*:1]; Gly(N-dodecyl) = CCCCCCCCCCCCNCC(=O)O; N(CH(CH2OH)2)Gly = O=C(O)CNC(CO)CO; N(octyl)Gly = CCCCCCCCNCC(=O)O; For = O=C*

Key:
[1] = Delivery vehicle size and polydispersity by dynamic light scattering; format: physicochemical
How it was run: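 LNPs made by microfluidic mixing of ethanolic peptoid/DSPC/cholesterol/DMG-PEG2000 (20:1.79:7.16:1.84 by weight) with mRNA in 10 mM citrate pH 5.0 at 1:3 by volume, then dialyzed overnight at 4 °C against tris-sucrose pH 7.4. Size and PDI read by dynamic light scattering in PBS.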

mRNA = mRNA encapsulation (modified Quant-iT RiboGreen assay); format: physicochemical; conditions: for mean percent encapsulation of RNA: RiboGreen, without vs with Triton X-100; for % Encapsulation: mRNA
How it was run: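 Peptoid nanoparticles were incubated with Triton X-100 for 10 min to release entrapped mRNA, then mixed with RiboGreen reagent and read by fluorescence (ex 485 nm/em 530 nm). Percent encapsulation was derived from the ratio of fluorescence without versus with Triton X-100.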

firefly luciferase = assay: In vivo firefly luciferase expression after intravenous injection of fLuc mRNA delivery vehicles (IVIS imaging); design: species or system female Balb/c mice; conditions: for Total Flux: mice, 2.5 ug fLuc mRNA intravenously, 6 hours post-injection; for Total Flux (luciferase expression): fLuc mRNA, intravenous, Balb/c mice
How it was run: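 Female Balb/c mice (6-8 weeks) given 2.5 ug fLuc mRNA in Nutshells IV. At 6 hours, IP D-luciferin (30 mg/mL, 10 μL/g) under isoflurane; IVIS imaging 10 minutes later, then harvested organs imaged ex vivo. Read-out: total photon flux in regions of interest.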

hEPO = assay: Quantification of hEPO in serum after IV injection of mRNA (Human EPO ELISA); format: in vivo; conditions: Balb/c mice, 2.5 μg mRNA IV, serum after 6 hours
How it was run: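 Balb/c mice received 2.5 μg mRNA encoding human EPO by IV injection; serum was collected after 6 hours. hEPO was measured by sandwich ELISA (biotin-conjugate, streptavidin-HRP, TMB, A450) against kit standards (mIU/mL) and an external standard (ng/mL), with values interpolated and corrected for dilution.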

[2] = Peptoid quantity remaining in liver by HPLC-TOF mass spectrometry; format: in vivo; conditions: liver homogenate
Procedure: Peptoid quantity in liver was determined via high-performance liquid chromatography coupled with time-of-flight mass spectrometer (HPLC-TOF). The entire liver was weighed, and then two sections were isolated using a provided biopsy punch for liver homogenization. Liver homogenate sample was prepared by resuspending 20 mg liver tissue in 400 μL extraction solvent (IPA/MeOH=8/2) containing an internal standard (400 pg/μL) followed by bead homogenization (45 sec per cycle for 3-4 cycles). Homogenized samples were centrifuged at 12,000 rpm for 8 min at 6 °C. The resulting supernatant was collected and stored at −20 °C for further LC analysis. 5 μL of the resulting supernatant sample from solid or liquid tissue was injected into a BEH C8 column on an Agilent 1290 Infinity II liquid chromatograph coupled with an Agilent 6230 LC-TOF system. Concentrations of peptoids were determined by a linear calibration curve (linear range:0.2-50 μg/g for solid tissue). Standard calibration curve solutions were prepared by spiking untreated liver followed by homogenization and centrifugation.

luciferase = assay: Luciferase expression after local (intramuscular or subcutaneous) administration of mRNA; format: in vivo; conditions: mRNA 0.01 mpk, 6 hours; for IM Flux: intramuscular; for SC Flux: subcutaneous
How it was run: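 Female Balb/c mice (6-8 weeks) received fLuc mRNA in aminolipidated peptoid Nutshells at 0.01 mpk subcutaneously or intramuscularly, or 0.1 mpk intratumorally. At 6 hours, anesthetized mice were given D-luciferin IP and imaged 10 minutes later; harvested organs were also imaged and total photon flux quantified in regions of interest.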

[3] = DLS in PBS, peptoid:DSPC:Cholesterol:DMG-PEG2000 weight ratio 20:1.79:7.16:1.84, mRNA

CCCCCCCCCC(=O)OCCCN(CC(=O)N(CC(N)=O)CC(CC)CCCC)C(=O)CN(CCCCCCCC)C(=O)CN(CC(CC)CCCC)C(=O)CN(CCCOC(=O)CCCCCCCCC)C(=O)CN(CCCCCCCC)C(=O)CN(C=O)CCCN1CCOCC1 (stereo not drawn) [Compound 110] (For-[Gly(N-3-morpholinopropyl)][N(octyl)Gly][Gly(N-(3-decanoyloxypropyl))][N(2-ethylhexyl)Gly][N(octyl)Gly][Gly(N-(3-decanoyloxypropyl))][N(2-ethylhexyl)Gly]-NH2)
PDI [1, 3]: 0.088 | Particle Size [1, 3]: 102.9 nm | mean percent encapsulation of RNA (mRNA): 50.5% | Total Flux (firefly luciferase): 2.54E+09 p/s | hEPO (hEPO): 333 ng/mL | % of injected dose remaining in liver [2]: 5.52% | IM Flux (luciferase): 1.43E+08 p/s | SC Flux (luciferase): 2.34E+08 p/s

CCCCCCCCCCCCN(C=O)CC(=O)N(CCCOC(=O)CCCCCCCCC)CC(=O)N(CC(=O)N(CCCN1CCOCC1)CC(=O)N(CC(=O)N(CCCOC(=O)CCCCCCCCC)CC(=O)N(CCCCCCCCCCCC)CC(N)=O)CC(CC)CCCC)CC(CC)CCCC (stereo not drawn) [Compound 88] (For-[Gly(N-dodecyl)][Gly(N-(3-decanoyloxypropyl))][N(2-ethylhexyl)Gly][Gly(N-3-morpholinopropyl)][N(2-ethylhexyl)Gly][Gly(N-(3-decanoyloxypropyl))][Gly(N-dodecyl)]-NH2)
PDI [1, 3]: 0.118 | Particle Size [1, 3]: 73.1 nm | Particle Size ([1]; formulation recipe F2): 72.4 nm | mean percent encapsulation of RNA (mRNA): 7.4% | % Encapsulation (mRNA; formulation recipe F2): 71.8% | Total Flux (luciferase expression) (firefly luciferase; formulation recipe F2): 1.59E+09 p/s | Total Flux (firefly luciferase): 3.77E+08 p/s | hEPO (hEPO): 109 ng/mL | % of injected dose remaining in liver [2]: 16.59% | IM Flux (luciferase): 4.29E+07 p/s | SC Flux (luciferase): 6.88E+07 p/s

CCCCCCCCCC(=O)OCCCN(C=O)CC(=O)N(CCCOC(=O)CCCCCCCCC)CC(=O)N(CC(=O)N(CCCN1CCOCC1)CC(=O)N(CCCOC(=O)CCCCCCCCC)CC(=O)N(CCCOC(=O)CCCCCCCCC)CC(=O)N(CC(N)=O)CC(CC)CCCC)CC(CC)CCCC (stereo not drawn) [Compound 112] (For-[Gly(N-(3-decanoyloxypropyl))][Gly(N-(3-decanoyloxypropyl))][N(2-ethylhexyl)Gly][Gly(N-3-morpholinopropyl)][Gly(N-(3-decanoyloxypropyl))][Gly(N-(3-decanoyloxypropyl))][N(2-ethylhexyl)Gly]-NH2)
PDI [1, 3]: 0.138 | Particle Size [1, 3]: 95.4 nm | Particle Size ([1]; formulation recipe R5): 87.6 nm | mean percent encapsulation of RNA (mRNA): 39.2% | % Encapsulation (mRNA; formulation recipe R5): 71.6% | Total Flux (luciferase expression) (firefly luciferase; formulation recipe R5): 2.67E+08 p/s | Total Flux (firefly luciferase): 1.13E+09 p/s | hEPO (hEPO): 345 ng/mL | % of injected dose remaining in liver [2]: 0.19% | IM Flux (luciferase): 1.80E+08 p/s | SC Flux (luciferase): 2.33E+08 p/s

CCCCCCCCCC(=O)OCCCN(CC(=O)N(CC(=O)N(CC(=O)N(CCCOC(=O)CCCCCCCCC)CC(=O)N(CC(N)=O)CC(CC)CCCC)CC(CC)CCCC)CC(CC)CCCC)C(=O)CN(CC(CC)CCCC)C(=O)CNCCCn1ccnc1 (stereo not drawn) [Compound 107] (H-[N(3-imidazol-1-ylpropyl)Gly][N(2-ethylhexyl)Gly][Gly(N-(3-decanoyloxypropyl))][N(2-ethylhexyl)Gly][N(2-ethylhexyl)Gly][Gly(N-(3-decanoyloxypropyl))][N(2-ethylhexyl)Gly]-NH2)
PDI [1, 3]: 0.140 | Particle Size [1, 3]: 77.4 nm | mean percent encapsulation of RNA (mRNA): 96.1% | Total Flux (firefly luciferase): 2.01E+09 p/s | hEPO (hEPO): 268 ng/mL | % of injected dose remaining in liver [2]: 47.20% | IM Flux (luciferase): 7.22E+07 p/s | SC Flux (luciferase): 7.41E+07 p/s

CCCCCCCCCC(=O)OCCCN(CC(=O)N(CC(=O)N(CC(=O)N(CCCOC(=O)CCCCCCCCC)CC(=O)N(CC(N)=O)CC(CCCC)CCCCCC)CC(CC)CCCC)CC(CCCC)CCCCCC)C(=O)CN(CC(CC)CCCC)C(=O)CNC(CO)CO (stereo not drawn) [Compound 61] (H-[N(CH(CH2OH)2)Gly][N(2-ethylhexyl)Gly][Gly(N-(3-decanoyloxypropyl))][X2][N(2-ethylhexyl)Gly][Gly(N-(3-decanoyloxypropyl))][X2]-NH2)
PDI [1, 3]: 0.081 | Particle Size [1, 3]: 75.4 nm | mean percent encapsulation of RNA (mRNA): 95.1% | Total Flux (firefly luciferase): 1.96E+09 p/s | hEPO (hEPO): 428 ng/mL | % of injected dose remaining in liver [2]: 13.39% | IM Flux (luciferase): 1.45E+08 p/s | SC Flux (luciferase): 1.99E+08 p/s

CCCCCCCCCCCC(=O)OCCCN(CC(=O)N(CC(=O)N(CC(=O)N(CCCOC(=O)CCCCCCCCCCC)CC(=O)N(CC(=O)N(CC(N)=O)CC(CC)CCCC)CC(CC)CCCC)CC(CC)CCCC)CC(CC)CCCC)C(=O)CNC(CO)CO (stereo not drawn) [Compound 51] (H-[N(CH(CH2OH)2)Gly][N(3-lauroyloxypropyl)Gly][N(2-ethylhexyl)Gly][N(2-ethylhexyl)Gly][N(3-lauroyloxypropyl)Gly][N(2-ethylhexyl)Gly][N(2-ethylhexyl)Gly]-NH2)
PDI [1, 3]: 0.128 | Particle Size [1, 3]: 61.4 nm | Particle Size ([1]; formulation recipe D22): 61.4 nm | Particle Size ([1]; formulation recipe O5): 58.4 nm | Particle Size ([1]; formulation recipe O6): 56.7 nm | mean percent encapsulation of RNA (mRNA): 80.3% | % Encapsulation (mRNA; formulation recipe D22): 80.3% | % Encapsulation (mRNA; formulation recipe O5): 91.9% | % Encapsulation (mRNA; formulation recipe O6): 91.8% | Total Flux (luciferase expression) (firefly luciferase; formulation recipe D22): 4.42E+09 p/s | Total Flux (luciferase expression) (firefly luciferase; formulation recipe O5): 1.50E+09 p/s | Total Flux (luciferase expression) (firefly luciferase; formulation recipe O6): 1.27E+09 p/s | Total Flux (firefly luciferase): 4.42E+09 p/s | hEPO (hEPO): 591 ng/mL | % of injected dose remaining in liver [2]: 16.40% | IM Flux (luciferase): 1.84E+08 p/s | SC Flux (luciferase): 2.26E+08 p/s
